Experimental data taken from article PMC6597546, “Identification of a potent benzoxaborole drug candidate for treating cryptosporidiosis” (Nature Communications, 2019).
Where “and” joins values, the source holds several entries; their conditions need not be identical. Equal values may be shown once. Read-outs that look alike come from different tables or passages of the source.

Assays:
[1] = tested on: CYP450 (2B6, 1A2, 2C9, 2C19, 2D6, 3A4); experiment: CYP450 inhibition, 6 isoforms; type: in vitro ADME; settings: @ 10 µM
[2] = tested on: C. parvum (Bunch Grass Farms Iowa isolate); experiment: NOD scid gamma (NSG) mouse model of established C. parvum infection; type: in vivo, NOD scid gamma mice; settings: for reduction of parasite shedding: after 4 days of treatment
Description: NOD scid gamma mice (NOD.Cg-Prkdcscid Il2rgtm1Wjl/SzJ)[55] (NSG) were used to model chronic Cryptosporidium infection. All NSG mouse studies were performed in compliance with animal care guidelines and with approval by the University of Vermont Institutional Animal Care and Use Committee. NSG mice with normal flora were purchased from The Jackson Laboratory (Bar Harbor, ME) and were housed for at least a week for acclimatization. […] Fecal parasite shedding was measured using a quantitative PCR (qPCR) assay, and the primers named above as Cp18s forward and Cp18s reverse.

[3] = tested on: C. parvum intracellular DNA synthesis; experiment: EdU incorporation DNA replication assay; type: cell-based, Cryptosporidium parvum; settings: 2 × EC90 = 0.42 µM
Description: The invasion assay, DNA replication assay, asexual to sexual stage conversion, and time-kill curve assays were performed using fluorescence microscopy to enumerate parasites and host cell nuclei. Staining protocols are individually described for each assay. Unless noted otherwise, the details of image acquisition were as follows. An inverted Nikon Eclipse Ti2000 microscope with an automated stage and Perfect Focus was used with NIS-Elements Advanced Research software (Nikon, USA, version 4.30.01) to image the wells. The microscope was programmed to focus on the center of each well and then take a 3 × 3 composite image per well using a 20 × (0.45 NA) objective. Images were exported as .tiff files and parasites and host nuclei counted using a custom macro on ImageJ (National Institutes of Health, version 1.52a). Data were analyzed using Microsoft Excel and GraphPad Prism (version 6.01). Measurement of DNA replication was used as a surrogate marker of Cryptosporidium development within HCT-8 cells. […] Images were acquired by focusing on the parasite focal plane, which is on top of the host cell monolayer, using a ×40 objective (0.7 NA) and EdU and lectin numbers were quantified using ImageJ software.

[4] = Plasma Protein Binding (bovine); type: in vitro ADME; settings: read-out: Plasma Protein Binding (PPB) (converted)
[5] = tested on: C. hominis TU502 isolate; experiment: C. hominis growth inhibition in HCT-8 cells; type: cell-based, Cryptosporidium hominis; settings: single replicates, unit inferred, read-out: In vitro efficacy (Fig 2b, EC50)
Description: Follow-up assays were performed at the University of Vermont (UVM) and Calibr at Scripps Research by infection of the colonic adenocarcinoma cell line HCT-8 (ATCC CCL-244) and staining with the Vicia villosa lectin and DAPI[17],[32]. The FBS concentrations and parasites used for these assays were as indicated; parasite isolates and sources included C. parvum Iowa isolate oocysts purchased from Bunch Grass Farm (Deary, ID), C. parvum Iowa isolate oocysts purchased from the Sterling Laboratory (University of Arizona, Tucson, AZ), wild type C. parvum oocysts provided by Dr. Jenni Zambriski (Virginia Tech, Blacksburg, VA), and the C. hominis TU502 isolate purchased from Dr. Saul Tzipori (Tufts University Cummings School of Veterinary Medicine, North Grafton, MA).

[6] = target: T1, hERG K+ ion channel (Homo sapiens, UniProt Q12809); experiment: hERG radioligand binding competition; settings: 10 µM test compound, 1 h at 25 °C
T1 construct: Ricerca Biosciences (Taipei, Taiwan), contract laboratory
T1 sequence (Q12809 whole entry): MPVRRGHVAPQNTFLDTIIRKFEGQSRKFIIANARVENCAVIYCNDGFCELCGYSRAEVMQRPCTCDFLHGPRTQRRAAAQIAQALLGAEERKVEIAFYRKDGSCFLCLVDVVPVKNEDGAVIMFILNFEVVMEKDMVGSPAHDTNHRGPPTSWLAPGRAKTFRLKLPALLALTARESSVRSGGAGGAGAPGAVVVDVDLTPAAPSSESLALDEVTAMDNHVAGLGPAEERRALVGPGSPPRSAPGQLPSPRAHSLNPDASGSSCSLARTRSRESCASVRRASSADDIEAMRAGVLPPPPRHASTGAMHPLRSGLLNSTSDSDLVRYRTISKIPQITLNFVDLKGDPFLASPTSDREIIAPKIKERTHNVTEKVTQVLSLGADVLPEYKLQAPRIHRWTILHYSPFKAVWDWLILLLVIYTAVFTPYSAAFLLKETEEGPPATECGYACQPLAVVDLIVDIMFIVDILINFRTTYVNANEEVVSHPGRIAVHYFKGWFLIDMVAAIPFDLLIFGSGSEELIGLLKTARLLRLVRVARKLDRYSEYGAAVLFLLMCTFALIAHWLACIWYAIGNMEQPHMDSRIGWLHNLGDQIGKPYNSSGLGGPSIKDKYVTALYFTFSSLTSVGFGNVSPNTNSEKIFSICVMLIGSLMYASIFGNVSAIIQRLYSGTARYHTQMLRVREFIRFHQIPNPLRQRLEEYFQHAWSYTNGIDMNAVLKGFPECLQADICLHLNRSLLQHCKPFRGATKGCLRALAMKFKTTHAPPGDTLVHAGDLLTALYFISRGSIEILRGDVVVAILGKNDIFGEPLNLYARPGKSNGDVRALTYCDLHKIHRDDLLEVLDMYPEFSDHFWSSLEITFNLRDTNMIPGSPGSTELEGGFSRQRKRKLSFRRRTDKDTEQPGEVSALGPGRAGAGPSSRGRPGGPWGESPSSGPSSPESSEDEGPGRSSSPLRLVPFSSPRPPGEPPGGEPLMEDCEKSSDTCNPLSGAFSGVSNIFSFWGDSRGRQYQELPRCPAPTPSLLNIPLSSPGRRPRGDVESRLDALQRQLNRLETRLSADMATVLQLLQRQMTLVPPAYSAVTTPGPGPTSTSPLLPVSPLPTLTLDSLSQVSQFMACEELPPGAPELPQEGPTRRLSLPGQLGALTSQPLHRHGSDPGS
Description: In vitro safety profiling studies were conducted by Ricerca Biosciences (Taipei, Taiwan) and WuXi AppTec (Suzhou, China). Ricerca performed a Lead Profiling and Adverse Reaction Enzyme panel of 109 off-target enzymes and receptors. This included the hERG K+ ion channel, which is associated with cardiac tachyarrhythmias, and used a radioligand binding competition format with 10 µM test compound for 1 h at 25 °C. For the enzyme and receptor panel, competitive inhibition at 10 µM of test compound was the most common assay format. The AMES bacterial reverse mutation assay detects point mutations in Escherichia coli and Salmonella typhimurium as an indicator of mutagenic activity. Bacterial strains were obtained from Molecular Toxicology (Boone, NC).

[7] = tested on: C. parvum DMC1 positive parasites; experiment: Asexual-to-sexual stage conversion assay (DMC1 expression); type: cell-based, Cryptosporidium parvum
Description: The invasion assay, DNA replication assay, asexual to sexual stage conversion, and time-kill curve assays were performed using fluorescence microscopy to enumerate parasites and host cell nuclei. Staining protocols are individually described for each assay. Unless noted otherwise, the details of image acquisition were as follows. An inverted Nikon Eclipse Ti2000 microscope with an automated stage and Perfect Focus was used with NIS-Elements Advanced Research software (Nikon, USA, version 4.30.01) to image the wells. The microscope was programmed to focus on the center of each well and then take a 3 × 3 composite image per well using a 20 × (0.45 NA) objective. Images were exported as .tiff files and parasites and host nuclei counted using a custom macro on ImageJ (National Institutes of Health, version 1.52a). Data were analyzed using Microsoft Excel and GraphPad Prism (version 6.01). […] Amphotericin B (Sigma, catalog# A2942) was added to the culture media at 0.1 to 0.5 µg per mL for the DMC1 dose response assays.

CC1(C)OB(O)c2cc(NC(=O)c3ccc(-n4cccn4)cc3Cl)ccc21 [AN7973]
CYP450 inhibition (in 6 isoforms – 2B6, 1A2, 2C9, 2C19, 2D6, 3A4) [1]: Negative | reduction of parasite shedding ([2]; 10 mg per kg once daily oral gavage): > 90% | parasite fecal shedding (qPCR), individual mice ([2]; 10 mg/kg, D7 (before treatment)): 58.681 oocysts/mg feces and 43.169 oocysts/mg feces and 158.993 oocysts/mg feces and 120.558 oocysts/mg feces | parasite fecal shedding (qPCR), individual mice ([2]; 10 mg/kg, D11): 7.142 oocysts/mg feces and 1.830 oocysts/mg feces and 16.882 oocysts/mg feces and 7.589 oocysts/mg feces | reduction of parasite shedding ([2]; 25 mg per kg once daily oral gavage): > 99% | parasite fecal shedding (qPCR), individual mice ([2]; 25 mg/kg, D7 (before treatment)): 379.464 oocysts/mg feces and 632.650 oocysts/mg feces and 267.595 oocysts/mg feces and 299.397 oocysts/mg feces | parasite fecal shedding (qPCR), individual mice ([2]; 25 mg/kg, D11, ND = not detected, lower limit of detection 0.1): 0.825 oocysts/mg feces | adverse effects in NSG mice ([2]; treated NSG mice gained weight normally): no adverse effects were observed | effect on intracellular DNA synthesis (EdU incorporation) [3]: arrested new DNA synthesis | fraction unbound [4]: 0.04 | EC50 ([5]; C. hominis (Tu502, 2%FBS)): 570 nM and 580 nM | EC50 ([5]; Cryptosporidium hominis, HCT-8, C. hominis (Tu502, 2%FBS)): 750 nM | hERG inhibition [6]: negative | EC50 ([7]; Cryptosporidium parvum, BGF Iowa isolate, HCT-8, 10% FBS, DMC1, interval in parentheses, read-out: EC50 asexual-to-sexual conversion (48–72 h)): 480 nM | % inhibition, 48 - 72 h DMC1 (asexual to sexual conversion) ([7]; log [AN7973] (M) 0.10): 95.75% | % inhibition, 48 - 72 h DMC1 (asexual to sexual conversion) ([7]; log [AN7973] (M) 0.28): 95.64% and 78.65% | % inhibition, 48 - 72 h DMC1 (asexual to sexual conversion) ([7]; log [AN7973] (M) 0.40): 95.48% | % inhibition, 48 - 72 h DMC1 (asexual to sexual conversion) ([7]; log [AN7973] (M) -0.20): 85.62% and 65.23% and 46.69% | % inhibition, 48 - 72 h DMC1 (asexual to sexual conversion) ([7]; log [AN7973] (M) -0.68): -48.74% and -54.94% and -50.77% | % inhibition, 48 - 72 h DMC1 (asexual to sexual conversion) ([7]; log [AN7973] (M) -0.93): -98.53% | % inhibition, 48 - 72 h DMC1 (asexual to sexual conversion) ([7]; log [AN7973] (M) -1.23): -40.27% | % inhibition, 48 - 72 h DMC1 (asexual to sexual conversion) ([7]; log [AN7973] (M) -1.53): -58.48% | % inhibition, 48 - 72 h DMC1 (asexual to sexual conversion) ([7]; log [AN7973] (M) -2.01): -35.29% | % inhibition, 48 - 72 h DMC1 (asexual to sexual conversion) ([7]; log [AN7973] (M) -2.48): -28.64%
